Experimental data from ChEMBL document CHEMBL1136426, “Synthesis and collateral dilator activity of nitroxyalkylamides having direct or latent sulfhydryl moieties” (2003).

Experiments:
[1] = test system: Canis familiaris; assay: Maximum collateral index in anesthetized dog at the dose of 0.01 mg/kg, i.v.; assay type: functional, Canis lupus familiaris; conditions: route intravenous
[2] = test system: Canis familiaris; assay: Collateral index in anesthetized dog at the dose of 0.01 mg/kg, i.v. after 60 minutes of administration; assay type: functional, Canis lupus familiaris; conditions: route intravenous
[3] = species on record: Canis familiaris; assay: Ratio of the CIAUC value to that of nitroglycerin (NTG ratio); assay type: functional, Canis lupus familiaris
[4] = test system: Canis familiaris; assay: Maximum […] was measured in anesthetized dog as percent at the dose of 0.01 mg/kg, i.v.; assay type: functional, Canis lupus familiaris; conditions: route intravenous
[5] = test system: Canis familiaris; assay: Maximum […] was measured in anesthetized dog as percent at the dose of 0.03 mg/kg, i.v.; assay type: functional, Canis lupus familiaris; conditions: route intravenous
[6] = test system: Canis familiaris; assay: Collateral index in anesthetized dog at the dose of 0.03 mg/kg, i.v. after 60 minutes of administration; assay type: functional, Canis lupus familiaris; conditions: route intravenous
[7] = test system: Canis familiaris; assay: Maximum collateral index in anesthetized dog at the dose of 0.03 mg/kg, i.v.; assay type: functional, Canis lupus familiaris; conditions: route intravenous
[8] = Nitroglycerin ratio to that was measured; assay type: functional

Q: What does the source list for `CC(=O)N[C@@H](CSC(=O)c1cccnc1)C(=O)NCCO[N+](=O)[O-]`?
A: Max collateral index [1]: 20; Collateral index [2]: 9; NG ratio [3]: 1.1; Max hypotension [4]: -24%

Q: What does the source list for `C[C@H](CO[N+](=O)[O-])NC(=O)[C@H]1CSC(=O)N1`?
A: NG ratio [3]: 0.4; Max hypotension [5]: -3%; Collateral index [6]: 5; Max collateral index [7]: 6

Q: What does the source list for `CC[C@@H](CO[N+](=O)[O-])NC(=O)[C@@H]1CSC(=O)N1`?
A: NG ratio [3]: 0.5; Max hypotension [5]: -1%; Collateral index [6]: 7; Max collateral index [7]: 7

Q: Which results are given for `O=C1N[C@H](C(=O)NCCO[N+](=O)[O-])CS1`?
A: Max collateral index [1]: 23; Collateral index [2]: 16; NG ratio [3]: 1.9; Max hypotension [4]: -8%

Q: With `CC1(C)SC(=O)N[C@@H]1C(=O)NCCO[N+](=O)[O-]` as the compound, how does the NG ratio [3] read?
A: 0.6

Q: What about the Max hypotension [5] of the same compound?
A: -2%

Q: What about the Collateral index [6] of the same compound?
A: 8

Q: And the Max collateral index [7]?
A: 9

Q: For `O=C1N[C@H](C(=O)NCCCCO[N+](=O)[O-])CS1`, which Max collateral index [1] is on record?
A: 2

Q: What about the Collateral index [2] of the same compound?
A: 0

Q: What about the NG ratio [3] of the same compound?
A: 0

Q: What about the Max hypotension [4] of the same compound?
A: 0%

Q: Which Max collateral index [1] does the source give for `C[C@@H]1SC(=O)N[C@@H]1C(=O)NCCO[N+](=O)[O-]` here?
A: 9

Q: What about the Collateral index [2] of the same compound?
A: 4

Q: What about the NG ratio [3] of the same compound?
A: 0.5

Q: And the Max hypotension [4]?
A: -2%

Q: For `C[C@H](CO[N+](=O)[O-])NC(=O)[C@@H]1CSC(=O)N1`, which NG ratio [3] is on record?
A: 0.9

Q: What about the Max hypotension [5] of the same compound?
A: -4%

Q: What about the Collateral index [6] of the same compound?
A: 12

Q: And the Max collateral index [7]?
A: 12

Q: With `CC(C)C(=O)N[C@@H](CSC(=O)C(C)C)C(=O)NCCO[N+](=O)[O-]` as the compound, how does the Max collateral index [1] read?
A: 25

Q: What about the Collateral index [2] of the same compound?
A: 9

Q: And the NG ratio [3]?
A: 1.5

Q: What about the Max hypotension [4] of the same compound?
A: -14%

Q: With `CC(CNC(=O)[C@@H]1CSC(=O)N1)O[N+](=O)[O-]` (some centres undefined) as the compound, how does the Max collateral index [1] read?
A: 0

Q: What about the Collateral index [2] of the same compound?
A: 0

Q: And the NG ratio [3]?
A: 0

Q: And the Max hypotension [4]?
A: 0%

Q: Which results are given for `CC(=O)N[C@@H](CSC(=O)OC(C)(C)C)C(=O)NCCO[N+](=O)[O-]`?
A: Max collateral index [1]: 21; Collateral index [2]: 11; NG ratio [3]: 0.8; Max hypotension [4]: -8%

Q: What does the source list for `CC(=O)N[C@@H](CS)C(=O)NCCO[N+](=O)[O-]`?
A: Max collateral index [1]: 39; Collateral index [2]: 9; NG ratio [3]: 1.9; Max hypotension [4]: -52%

Q: With `CC(=O)N[C@@H](CSC(=O)OCC(C)C)C(=O)NCCO[N+](=O)[O-]` as the compound, how does the Max collateral index [1] read?
A: 25

Q: What about the Collateral index [2] of the same compound?
A: 6

Q: What about the NG ratio [3] of the same compound?
A: 1.3

Q: What about the Max hypotension [4] of the same compound?
A: -12%

Q: What does the source list for `O=C1NC(C(=O)NCCO[N+](=O)[O-])C(c2ccccc2)S1` (centres undefined)?
A: NG ratio [3]: 1; Max hypotension [5]: -6%; Collateral index [6]: 9; Max collateral index [7]: 18

Q: Which results are given for `CCCC[C@@H](CO[N+](=O)[O-])NC(=O)[C@@H]1CSC(=O)N1`?
A: NG ratio [3]: 1.6; Max hypotension [5]: -4%; Collateral index [6]: 17; Max collateral index [7]: 21

Q: What does the source list for `O=C1NC(C(=O)NCCO[N+](=O)[O-])C(c2cccs2)S1` (centres undefined)?
A: Max collateral index [1]: 8; Collateral index [2]: 3; NG ratio [3]: 0.5; Max hypotension [4]: 0%

Q: Which NG ratio [3] does the source give for `C[C@@H](CO[N+](=O)[O-])NC(=O)[C@@H]1CSC(=O)N1` here?
A: 1.1

Q: What about the Max hypotension [5] of the same compound?
A: -5%

Q: What about the Collateral index [6] of the same compound?
A: 15

Q: And the Max collateral index [7]?
A: 16

Q: Which Max collateral index [1] does the source give for `CC(=O)N[C@@H](CSC(=O)c1ccccc1)C(=O)NCCO[N+](=O)[O-]` here?
A: 49

Q: What about the Collateral index [2] of the same compound?
A: 5

Q: What about the NG ratio [3] of the same compound?
A: 2.1

Q: What about the Max hypotension [4] of the same compound?
A: -28%

Q: Which Max collateral index [1] does the source give for `CC(=O)N[C@@H](CSC(=O)C(C)(C)C)C(=O)NCCO[N+](=O)[O-]` here?
A: 45

Q: What about the Collateral index [2] of the same compound?
A: 8

Q: And the NG ratio [3]?
A: 2.5

Q: And the Max hypotension [4]?
A: -23%

Q: Which NG ratio [3] does the source give for `O=C1NC(C(=O)NCCO[N+](=O)[O-])C(c2ccco2)S1` (centres undefined) here?
A: 0.4

Q: And the Max hypotension [5]?
A: -3%

Q: What about the Collateral index [6] of the same compound?
A: 3

Q: What about the Max collateral index [7] of the same compound?
A: 6

Q: With `CCOC(=O)SC[C@H](NC(C)=O)C(=O)NCCO[N+](=O)[O-]` as the compound, how does the Max collateral index [1] read?
A: 39

Q: What about the Collateral index [2] of the same compound?
A: 16

Q: What about the NG ratio [3] of the same compound?
A: 2.4

Q: What about the Max hypotension [4] of the same compound?
A: -18%

Q: Which results are given for `C[C@@H](CO[N+](=O)[O-])NC(=O)[C@H]1CSC(=O)N1`?
A: NG ratio [3]: 0.3; Max hypotension [5]: -1%; Collateral index [6]: 3; Max collateral index [7]: 5

Q: For `CC(=O)N[C@@H](CSC(C)=O)C(=O)NCCO[N+](=O)[O-]`, which Max collateral index [1] is on record?
A: 52

Q: And the Collateral index [2]?
A: 6

Q: What about the NG ratio [3] of the same compound?
A: 2

Q: And the Max hypotension [4]?
A: -44%

Q: With `O=C1NC(C(=O)NCCO[N+](=O)[O-])C(c2cccnc2)S1` (centres undefined) as the compound, how does the Max collateral index [1] read?
A: 2

Q: What about the Collateral index [2] of the same compound?
A: 0

Q: And the Max hypotension [4]?
A: -4%

Q: What about the NG ratio [8] of the same compound?
A: 0.1

Q: Which NG ratio [3] does the source give for `O=C1N[C@H](C(=O)NCCCO[N+](=O)[O-])CS1` here?
A: 0.1

Q: And the Max hypotension [5]?
A: 0%

Q: What about the Collateral index [6] of the same compound?
A: 6

Q: What about the Max collateral index [7] of the same compound?
A: 4

Q: With `O=C1N[C@@H](C(=O)NCCO[N+](=O)[O-])CS1` as the compound, how does the NG ratio [3] read?
A: 0.8

Q: What about the Max hypotension [5] of the same compound?
A: -8%

Q: And the Collateral index [6]?
A: 11

Q: And the Max collateral index [7]?
A: 14

Q: Which results are given for `O=C1NC(C(=O)NCCO[N+](=O)[O-])C(c2cccc3ccccc23)S1` (centres undefined)?
A: Max collateral index [1]: 9; Collateral index [2]: 9; Max hypotension [4]: -2%; NG ratio [8]: 0.5

Q: Which NG ratio [3] does the source give for `CCC[C@@H](CO[N+](=O)[O-])NC(=O)[C@@H]1CSC(=O)N1` here?
A: 1.3

Q: And the Max hypotension [5]?
A: -7%

Q: What about the Collateral index [6] of the same compound?
A: 17

Q: And the Max collateral index [7]?
A: 18

Q: For `O=C(N[C@@H](CS)C(=O)NCCO[N+](=O)[O-])c1cccnc1`, which Max collateral index [1] is on record?
A: 2

Q: And the Collateral index [2]?
A: 0

Q: What about the NG ratio [3] of the same compound?
A: 0

Q: What about the Max hypotension [4] of the same compound?
A: -3%

Q: Which NG ratio [3] does the source give for `O=[N+]([O-])OCC(CO[N+](=O)[O-])O[N+](=O)[O-]` [NITROGLYCERIN] here?
A: 1

Q: What about the Max hypotension [5] of the same compound?
A: -55%

Q: What about the Collateral index [6] of the same compound?
A: 4

Q: What about the Max collateral index [7] of the same compound?
A: 33

Q: Which results are given for `O=C1NC(C(=O)NCCO[N+](=O)[O-])C(Cc2ccccc2)S1` (centres undefined)?
A: Max collateral index [1]: 12; Collateral index [2]: 7; NG ratio [3]: 1; Max hypotension [4]: -3%
